Results: US4286089A, “7-Acyl-3-(substituted tetrazolyl thiomethyl)cephalosporins” (SmithKline Corporation, priority 1974, dated 1981)

System: E. coli 12140
Experiment: In vivo mouse protection, E. coli 12140
Conditions: Escherichia coli, po, E. coli 12140, p.o.
Description: Compound names corresponding to numbers are given in the experimental section. For comparative purposes, data for cephamandole, which is 7-mandelamido-3-(1-methyltetrazol-5-ylthiomethyl)-3-cephem-4-carboxylic acid, is also given in Tables 1 and 2.

In the case of N[C@@H](C(=O)NC1C(=O)N2C(C(=O)O)=C(CSc3nnnn3CC(=O)O)CS[C@H]12)c1ccc(O)cc1 (stereo partly drawn) [II, 7-(D-α-Amino-4-hydroxyphenylacetamido)-3-(1-carboxymethyl-tetrazol-5-ylthiomethyl)-3-cephem-4-carboxylic acid], the ED50 is reported as 200 mg/kg.
